Assay results taken from the supplement of paper PMC10307832.

Experiments:
Experiment in all cases: relative viability (nuclei count vs DMSO), 5 days (fraction); higher = more cells survive
Avagacestat + Trametinib = compound: NC(=O)[C@@H](CCC(F)(F)F)N(Cc1ccc(-c2ncon2)cc1F)S(=O)(=O)c1ccc(Cl)cc1 [Avagacestat] + CC(=O)Nc1cccc(-n2c(=O)n(C3CC3)c(=O)c3c(Nc4ccc(I)cc4F)n(C)c(=O)c(C)c32)c1 [Trametinib] (partner 0.02 µM)
Summary of the method: (§1)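 The day after seeding in 1536-well plates, lung cancer cell lines were treated by pin tool with a single drug, or with a fixed anchor-drug dose together with five library-drug doses (not always all listed) in √10 steps. After 5 days, a combined fix-and-stain solution (final 0.05% Triton X-100, 1% formaldehyde, 1 ug/ml Hoechst) was added. Nuclei counted on 4× images gave relative viability as treated counts over vehicle counts, reported as the median of duplicate plates.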

Avagacestat + Bortezomib = compound: NC(=O)[C@@H](CCC(F)(F)F)N(Cc1ccc(-c2ncon2)cc1F)S(=O)(=O)c1ccc(Cl)cc1 [Avagacestat] + CC(C)C[C@H](NC(=O)[C@H](Cc1ccccc1)NC(=O)c1cnccn1)B(O)O [Bortezomib] (partner 0.002 µM)
Summary of the method: as §1

Avagacestat + Pictilisib = compound: NC(=O)[C@@H](CCC(F)(F)F)N(Cc1ccc(-c2ncon2)cc1F)S(=O)(=O)c1ccc(Cl)cc1 [Avagacestat] + CS(=O)(=O)N1CCN(Cc2cc3nc(-c4cccc5[nH]ncc45)nc(N4CCOCC4)c3s2)CC1 [Pictilisib] (partner 1 µM)
Summary of the method: as §1

Avagacestat + Olaparib = compound: NC(=O)[C@@H](CCC(F)(F)F)N(Cc1ccc(-c2ncon2)cc1F)S(=O)(=O)c1ccc(Cl)cc1 [Avagacestat] + O=C(c1cc(Cc2n[nH]c(=O)c3ccccc23)ccc1F)N1CCN(C(=O)C2CC2)CC1 [Olaparib] (partner 8 µM)
Summary of the method: as §1

Cell Line	relative viability (Avagacestat + Trametinib; first compound 0.08 µM)	relative viability (Avagacestat + Trametinib; first compound 0.253 µM)	relative viability (Avagacestat + Trametinib; first compound 0.8 µM)	relative viability (Avagacestat + Trametinib; first compound 2.53 µM)	relative viability (Avagacestat + Trametinib; first compound 8 µM)	relative viability (Avagacestat + Bortezomib; first compound 0.08 µM)	relative viability (Avagacestat + Bortezomib; first compound 0.253 µM)	relative viability (Avagacestat + Bortezomib; first compound 0.8 µM)	relative viability (Avagacestat + Bortezomib; first compound 2.53 µM)	relative viability (Avagacestat + Bortezomib; first compound 8 µM)	relative viability (Avagacestat + Pictilisib; first compound 0.08 µM)	relative viability (Avagacestat + Pictilisib; first compound 0.253 µM)	relative viability (Avagacestat + Pictilisib; first compound 0.8 µM)	relative viability (Avagacestat + Pictilisib; first compound 2.53 µM)	relative viability (Avagacestat + Pictilisib; first compound 8 µM)	relative viability (Avagacestat + Olaparib; first compound 0.08 µM)	relative viability (Avagacestat + Olaparib; first compound 0.253 µM)	relative viability (Avagacestat + Olaparib; first compound 0.8 µM)	relative viability (Avagacestat + Olaparib; first compound 2.53 µM)	relative viability (Avagacestat + Olaparib; first compound 8 µM)
NCI-H2085	0.608	0.604	0.637	0.559	0.644	1.13	1.21	1.14	1.13	0.992	0.543	0.461	0.518	0.501	0.46	0.823	0.833	0.847	0.825	0.8
NCI-H2087	0.211	0.223	0.196	0.183	0.198	0.946	1.05	0.917	0.918	0.8	0.905	1.04	1.27	0.896	0.955	0.806	0.613	0.884	0.62	0.543
NCI-H2126	0.612	0.553	0.545	0.524	0.512	1.15	1.1	1.1	1.18	1.02	0.521	0.461	0.487	0.477	0.463	0.921	0.941	0.931	1.03	0.873
NCI-H2228	0.591	0.535	0.753	0.59	0.354	1.12	0.952	1.05	0.886	0.734	0.431	0.498	0.556	0.346	0.349	0.642	0.862	0.8	0.658	0.59
NCI-H2347	0.283	0.324	0.388	0.327	0.283	1.1	0.914	0.935	0.862	0.79	0.467	0.688	0.849	0.387	0.624	0.611	0.589	0.601	0.548	0.554
NCI-H2405	0.687	0.69	0.548	0.508	0.554	1.06	1.03	0.999	0.919	0.94	0.432	0.465	0.473	0.329	0.377	0.976	0.911	0.978	0.778	0.826
NCI-H3122	0.298	0.233	0.197	0.23	0.219	1.06	1.03	1.05	1.01	0.969	0.723	0.751	0.748	0.715	0.607	0.717	0.735	0.885	0.659	0.645
PC-3 [JPC-3]	0.763	0.754	0.816	0.742	0.714	0.789	1.01	0.924	0.902	0.914	0.806	0.903	0.794	0.772	0.72	1.21	1.28	1.36	1.13	1.2
PC-14	1.14	1.1	0.933	0.736	0.649	1.12	1.12	0.848	0.785	0.77	1.06	0.627	0.673	0.544	0.539	0.316	0.418	0.298	0.251	0.3
RERF-LC-KJ	0.917	0.853	0.89	0.81	0.84	1.17	1.37	1.16	1.04	1.02	0.526	0.599	0.549	0.464	0.617	1.07	1.12	1.06	1	0.978
SK-LU-1	0.524	0.457	0.516	0.467	0.382	1.46	1.21	1.32	1.13	0.737	0.628	0.526	0.586		0.354	0.472	0.62	0.515		0.374
SW 1573	0.75	0.679	0.519	0.629	0.462	1.26	1.03	1.19	0.967	0.922	0.771	0.625	0.524	0.492	0.444	0.643	0.572	0.465	0.472	0.47
UMC-11	0.752	0.686	0.799	0.789	0.675	0.915	0.563	0.722	0.749	0.414	0.966	0.747	0.964	0.844	0.867	0.387	0.698	0.356	0.385	0.389
